Measured values: patent US9040067B2, “Disinfecting and antimicrobial compositions” (priority 2005, dated 2015)

What was measured:
Assay type in all cases: cell-based
Listeria monocytogenes = assay: MIC/MLC in brain heart infusion broth; also: key: + = growth (inactive); − = no growth (active)
Procedure: (§1) The tests were carried out in 10 ml of brain heart infusion broth. The esters were serially diluted in brain heart infusion broth of samples of, 0.1, 0.2, 0.3, 0.4 and 0.5/10 ml and challenged with 0.1 ml of 1/100 dilution of 24 hr old brain heart infusion bacterial culture. The lowest concentration determined the minimum inhibitory concentration (MIC). The samples were observed after 48 hrs at 37° C. A loopful from tubes without growth were plated on BHI agar plates and observed for growth for 24 to 48 hrs at 37° C. The samples with the lowest concentration of the ester without bacterial growth on the plates represented the minimum lethal concentration (MLC).
(§2) A series of samples of (a) methyl lactate, (b) ethyl lactate and (c) butyl lactate, alone, and in admixture with varying amounts of decyl lactate and sodium dodecyl sulfates were used to test minimum inhibitory activity (MIC) by the method described in Example II, against the cultures of E. coli 0157 H7, Listeria monocytogenes, Staphylococcus aureus, Salmonella typhi, and Pseudomonas aeruginosa.

Pseudomonas aeruginosa = assay: MIC/MLC in brain heart infusion broth; conditions: for MIC, Concentration of Lactic Esters 0.5%: 0.5% ester; for MIC, Concentration of Lactic Esters 1%: 1% ester; for MIC, Concentration of Lactic Esters 2%: 2% ester; for MIC, Concentration of Lactic Esters 3%: 3% ester; for MIC, Concentration of Lactic Esters 4%: 4% ester; for MIC, Concentration of Lactic Esters 5%: 5% ester; as to all read-outs here: key: + = growth (inactive); − = no growth (active)
Procedure: as §1, §2

Saccharomyces cerevisiae = assay: MIC and MLC against yeast in Sab. broth; conditions: for Lethal (MLC) Concentration 1% / Inhibitory (MIC) Concentration 1%: 1% ester; for Lethal (MLC) Concentration 1.5% / Inhibitory (MIC) Concentration 1.5%: 1.5% ester; for Lethal (MLC) Concentration 2% / Inhibitory (MIC) Concentration 2%: 2% ester; for Lethal (MLC) Concentration 3% / Inhibitory (MIC) Concentration 3%: 3% ester; for Lethal (MLC) Concentration 4% / Inhibitory (MIC) Concentration 4%: 4% ester; as to Lethal (MLC) Concentration 1%: key: + = growth (inactive); − = no growth (active); as to Lethal (MLC) Concentration 1.5%: key: + = growth (inactive); − = no growth (active); as to Lethal (MLC) Concentration 2%: key: + = growth (inactive); − = no growth (active); as to Lethal (MLC) Concentration 3%: key: + = growth (inactive); − = no growth (active); as to Lethal (MLC) Concentration 4%: key: + = growth (inactive); − = no growth (active)
Procedure: A 0.1 ml of 1/100 dilution of 48 hr old culture of S. cerevisiae was used as inoculum. The test was performed using Sab. broth. The tubes were incubated at room temperature 25° C. The test was read after 48 hrs.

Compound: CCCCOC(=O)C(C)O (stereo not shown) [Butyl lactate, butyl lactate]
- MLC, Concentration of Butyl lactate 0.5% (Listeria monocytogenes; 0.5%): +
- MLC, Concentration of Butyl lactate 1% (Listeria monocytogenes; 1%): +
- MLC, Concentration of Butyl lactate 2% (Listeria monocytogenes; 2%): −
- MLC, Concentration of Butyl lactate 3% (Listeria monocytogenes; 3%): −
- MLC, Concentration of Butyl lactate 4% (Listeria monocytogenes; 4%): −
- MLC, Concentration of Butyl lactate 5% (Listeria monocytogenes; 5%): −
- MLC, Concentration of Butyl lactate 0.5% (Pseudomonas aeruginosa; 0.5%): +
- MIC, Concentration of Lactic Esters 0.5% (Pseudomonas aeruginosa; SDS 0.0 ppm): +
- MIC, Concentration of Lactic Esters 0.5% (Pseudomonas aeruginosa; SDS 50 ppm): −
- MIC, Concentration of Lactic Esters 0.5% (Pseudomonas aeruginosa; SDS 100 ppm): −
- MIC, Concentration of Lactic Esters 0.5% (Pseudomonas aeruginosa; SDS 200 ppm): −
- MLC, Concentration of Butyl lactate 1% (Pseudomonas aeruginosa; 1%): +
- MIC, Concentration of Lactic Esters 1% (Pseudomonas aeruginosa; SDS 0.0 ppm): +
- MIC, Concentration of Lactic Esters 1% (Pseudomonas aeruginosa; SDS 50 ppm): −
- MIC, Concentration of Lactic Esters 1% (Pseudomonas aeruginosa; SDS 100 ppm): −
- MIC, Concentration of Lactic Esters 1% (Pseudomonas aeruginosa; SDS 200 ppm): −
- MLC, Concentration of Butyl lactate 2% (Pseudomonas aeruginosa; 2%): +
- MIC, Concentration of Lactic Esters 2% (Pseudomonas aeruginosa; SDS 0.0 ppm): −
- MIC, Concentration of Lactic Esters 2% (Pseudomonas aeruginosa; SDS 50 ppm): −
- MIC, Concentration of Lactic Esters 2% (Pseudomonas aeruginosa; SDS 100 ppm): −
- MIC, Concentration of Lactic Esters 2% (Pseudomonas aeruginosa; SDS 200 ppm): −
- MLC, Concentration of Butyl lactate 3% (Pseudomonas aeruginosa; 3%): −
- MIC, Concentration of Lactic Esters 3% (Pseudomonas aeruginosa; SDS 0.0 ppm): −
- MIC, Concentration of Lactic Esters 3% (Pseudomonas aeruginosa; SDS 50 ppm): −
- MIC, Concentration of Lactic Esters 3% (Pseudomonas aeruginosa; SDS 100 ppm): −
- MIC, Concentration of Lactic Esters 3% (Pseudomonas aeruginosa; SDS 200 ppm): −
- MLC, Concentration of Butyl lactate 4% (Pseudomonas aeruginosa; 4%): −
- MIC, Concentration of Lactic Esters 4% (Pseudomonas aeruginosa; SDS 0.0 ppm): −
- MIC, Concentration of Lactic Esters 4% (Pseudomonas aeruginosa; SDS 50 ppm): −
- MIC, Concentration of Lactic Esters 4% (Pseudomonas aeruginosa; SDS 100 ppm): −
- MIC, Concentration of Lactic Esters 4% (Pseudomonas aeruginosa; SDS 200 ppm): −
- MLC, Concentration of Butyl lactate 5% (Pseudomonas aeruginosa; 5%): −
- MIC, Concentration of Lactic Esters 5% (Pseudomonas aeruginosa; SDS 0.0 ppm): −
- MIC, Concentration of Lactic Esters 5% (Pseudomonas aeruginosa; SDS 50 ppm): −
- MIC, Concentration of Lactic Esters 5% (Pseudomonas aeruginosa; SDS 100 ppm): −
- MIC, Concentration of Lactic Esters 5% (Pseudomonas aeruginosa; SDS 200 ppm): −
- Lethal (MLC) Concentration 1% (Saccharomyces cerevisiae): −
- Inhibitory (MIC) Concentration 1% (Saccharomyces cerevisiae; 48 hrs, 25° C): −
- Inhibitory (MIC) Concentration 1% (Saccharomyces cerevisiae; Sodium lauryl sulfate 200 ppm): −
- Lethal (MLC) Concentration 1% (Saccharomyces cerevisiae; Sodium lauryl sulfate 200 ppm): −
- Lethal (MLC) Concentration 1.5% (Saccharomyces cerevisiae): −
- Inhibitory (MIC) Concentration 1.5% (Saccharomyces cerevisiae; 48 hrs, 25° C): −
- Inhibitory (MIC) Concentration 1.5% (Saccharomyces cerevisiae; Sodium lauryl sulfate 200 ppm): −
- Lethal (MLC) Concentration 1.5% (Saccharomyces cerevisiae; Sodium lauryl sulfate 200 ppm): −
- Lethal (MLC) Concentration 2% (Saccharomyces cerevisiae): −
- Inhibitory (MIC) Concentration 2% (Saccharomyces cerevisiae; 48 hrs, 25° C): −
- Inhibitory (MIC) Concentration 2% (Saccharomyces cerevisiae; Sodium lauryl sulfate 200 ppm): −
- Lethal (MLC) Concentration 2% (Saccharomyces cerevisiae; Sodium lauryl sulfate 200 ppm): −
- Lethal (MLC) Concentration 3% (Saccharomyces cerevisiae): −
- Inhibitory (MIC) Concentration 3% (Saccharomyces cerevisiae; 48 hrs, 25° C): −
- Inhibitory (MIC) Concentration 3% (Saccharomyces cerevisiae; Sodium lauryl sulfate 200 ppm): −
- Lethal (MLC) Concentration 3% (Saccharomyces cerevisiae; Sodium lauryl sulfate 200 ppm): −
- Lethal (MLC) Concentration 4% (Saccharomyces cerevisiae): −
- Inhibitory (MIC) Concentration 4% (Saccharomyces cerevisiae; 48 hrs, 25° C): −
- Inhibitory (MIC) Concentration 4% (Saccharomyces cerevisiae; Sodium lauryl sulfate 200 ppm): −
- Lethal (MLC) Concentration 4% (Saccharomyces cerevisiae; Sodium lauryl sulfate 200 ppm): −

Compound: COC(=O)C(C)O (stereo not shown) [Methyl lactate, methyl lactate]
- MIC, Concentration of Lactic Esters 0.5% (Pseudomonas aeruginosa; SDS 0.0 ppm): +
- MIC, Concentration of Lactic Esters 0.5% (Pseudomonas aeruginosa; SDS 50 ppm): −
- MIC, Concentration of Lactic Esters 0.5% (Pseudomonas aeruginosa; SDS 100 ppm): −
- MIC, Concentration of Lactic Esters 0.5% (Pseudomonas aeruginosa; SDS 200 ppm): −
- MIC, Concentration of Lactic Esters 1% (Pseudomonas aeruginosa; SDS 0.0 ppm): +
- MIC, Concentration of Lactic Esters 1% (Pseudomonas aeruginosa; SDS 50 ppm): −
- MIC, Concentration of Lactic Esters 1% (Pseudomonas aeruginosa; SDS 100 ppm): −
- MIC, Concentration of Lactic Esters 1% (Pseudomonas aeruginosa; SDS 200 ppm): −
- MIC, Concentration of Lactic Esters 2% (Pseudomonas aeruginosa; SDS 0.0 ppm): −
- MIC, Concentration of Lactic Esters 2% (Pseudomonas aeruginosa; SDS 50 ppm): −
- MIC, Concentration of Lactic Esters 2% (Pseudomonas aeruginosa; SDS 100 ppm): −
- MIC, Concentration of Lactic Esters 2% (Pseudomonas aeruginosa; SDS 200 ppm): −
- MIC, Concentration of Lactic Esters 3% (Pseudomonas aeruginosa; SDS 0.0 ppm): −
- MIC, Concentration of Lactic Esters 3% (Pseudomonas aeruginosa; SDS 50 ppm): −
- MIC, Concentration of Lactic Esters 3% (Pseudomonas aeruginosa; SDS 100 ppm): −
- MIC, Concentration of Lactic Esters 3% (Pseudomonas aeruginosa; SDS 200 ppm): −
- MIC, Concentration of Lactic Esters 4% (Pseudomonas aeruginosa; SDS 0.0 ppm): −
- MIC, Concentration of Lactic Esters 4% (Pseudomonas aeruginosa; SDS 50 ppm): −
- MIC, Concentration of Lactic Esters 4% (Pseudomonas aeruginosa; SDS 100 ppm): −
- MIC, Concentration of Lactic Esters 4% (Pseudomonas aeruginosa; SDS 200 ppm): −
- MIC, Concentration of Lactic Esters 5% (Pseudomonas aeruginosa; SDS 0.0 ppm): −
- MIC, Concentration of Lactic Esters 5% (Pseudomonas aeruginosa; SDS 50 ppm): −
- MIC, Concentration of Lactic Esters 5% (Pseudomonas aeruginosa; SDS 100 ppm): −
- MIC, Concentration of Lactic Esters 5% (Pseudomonas aeruginosa; SDS 200 ppm): −
- Lethal (MLC) Concentration 1% (Saccharomyces cerevisiae): +
- Inhibitory (MIC) Concentration 1% (Saccharomyces cerevisiae; 48 hrs, 25° C): +
- Inhibitory (MIC) Concentration 1% (Saccharomyces cerevisiae; Sodium lauryl sulfate 200 ppm): +
- Lethal (MLC) Concentration 1% (Saccharomyces cerevisiae; Sodium lauryl sulfate 200 ppm): +
- Lethal (MLC) Concentration 1.5% (Saccharomyces cerevisiae): +
- Inhibitory (MIC) Concentration 1.5% (Saccharomyces cerevisiae; 48 hrs, 25° C): +
- Inhibitory (MIC) Concentration 1.5% (Saccharomyces cerevisiae; Sodium lauryl sulfate 200 ppm): +
- Lethal (MLC) Concentration 1.5% (Saccharomyces cerevisiae; Sodium lauryl sulfate 200 ppm): +
- Lethal (MLC) Concentration 2% (Saccharomyces cerevisiae): +
- Inhibitory (MIC) Concentration 2% (Saccharomyces cerevisiae; 48 hrs, 25° C): +
- Inhibitory (MIC) Concentration 2% (Saccharomyces cerevisiae; Sodium lauryl sulfate 200 ppm): +
- Lethal (MLC) Concentration 2% (Saccharomyces cerevisiae; Sodium lauryl sulfate 200 ppm): +
- Lethal (MLC) Concentration 3% (Saccharomyces cerevisiae): −
- Inhibitory (MIC) Concentration 3% (Saccharomyces cerevisiae; 48 hrs, 25° C): −
- Inhibitory (MIC) Concentration 3% (Saccharomyces cerevisiae; Sodium lauryl sulfate 200 ppm): −
- Lethal (MLC) Concentration 3% (Saccharomyces cerevisiae; Sodium lauryl sulfate 200 ppm): −
- Lethal (MLC) Concentration 4% (Saccharomyces cerevisiae): −
- Inhibitory (MIC) Concentration 4% (Saccharomyces cerevisiae; 48 hrs, 25° C): −
- Inhibitory (MIC) Concentration 4% (Saccharomyces cerevisiae; Sodium lauryl sulfate 200 ppm): −
- Lethal (MLC) Concentration 4% (Saccharomyces cerevisiae; Sodium lauryl sulfate 200 ppm): −
